Measured values taken from patent publication US9878984B2, “Anti-cancer compounds” (NORTHWESTERN UNIVERSITY, priority 2008, dated 2018).

Legend:
pBR322 plasmid DNA = test: DNA intercalation assay (topoisomerase I based plasmid DNA unwinding); assay type: biochemical; conditions: 10, 31.6, and 100 μM, human topoisomerase I
Procedure: DNA Intercalation Assay: A DNA unwinding assay was performed as previously described with minor modifications. Four Units of recombinant wild type human topoisomerase I (Topogen—Port Orange, Fla.) were incubated with reaction buffer (included with enzyme), ˜0.5 μg of pBR322 plasmid DNA, which is a mixture of form I and form II plasmid DNA, and water added to a final volume of 19 μL. The reactions were incubated at 37° C. for 30 min and then 1 μL of each compound was added to give a final concentration of 10, 31.6, and 100 μM (final solvent concentration of 1% DMSO) and the reaction mixture was incubated at 37° C. for another 30 min. The reaction was stopped by the addition of 5 μL gel loading dye. The samples were immediately loaded onto a 1% agarose gel and electrophoresis was performed at 50 V for 3 h at room temperature. Pictures of the gels were obtained using a Kodak Image Station 440 CF (Kodak—Rochester, N.Y.) equipped with a UV source.
This activity depends on the ability of these compounds to intercalate DNA, which is the proposed mechanism of cytotoxic action of amonafide and its analogs. Therefore, the intercalation of plasmid DNA by A1-A9 was compared with the intercalation by amonafide to determine if they behave similarly. A topoisomerase I (topo I) based plasmid DNA unwinding assay was used to determine the intercalation of each compound [1]. […]

[1] = target: T1, wild type recombinant human NAT2 (NAT2*4) (Homo sapiens, UniProt P11245); test: NAT2 acetylation assay (mass spectrometry); assay type: in vitro ADME; conditions: 200 μM compound, 100 μg NAT2*4, 400 μM AcetylCoA, 10 min
T1 construct: made in house; host or cells: E. coli
T1 sequence (P11245 1-290): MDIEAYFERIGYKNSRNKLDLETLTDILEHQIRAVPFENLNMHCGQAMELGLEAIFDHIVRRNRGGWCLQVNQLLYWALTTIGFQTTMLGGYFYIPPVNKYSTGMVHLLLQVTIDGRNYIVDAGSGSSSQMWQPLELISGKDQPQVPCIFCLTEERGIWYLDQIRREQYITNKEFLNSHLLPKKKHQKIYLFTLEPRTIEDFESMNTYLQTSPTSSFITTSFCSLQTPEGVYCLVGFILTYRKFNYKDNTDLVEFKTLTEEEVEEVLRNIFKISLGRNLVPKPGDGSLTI
Procedure: NAT2 Assay: This assay was performed using a wild type recombinant human NAT2 (NAT2*4) that was purified from E. coli as previously described. The volume of each reaction was 500 μL with 200 μM amonafide, A1, or A2, 100 μg NAT2*4, and 400 μM AcetylCoA (Sigma-Poole, UK). Reactions were run for 0 or 10 min and stopped by addition of 500 μL of 20% (w/v) trichloroacetic acid (TCA-Sigma-Poole, UK) to give a final TCA concentration of […], which precipitates the enzyme. Two control assays, lacking either enzyme or compound, were performed for each compound. The reaction mixtures were prepared for analysis by isolation of the compounds from the reaction matrix by solid-phase extraction. In brief, 100 μL of the reaction mixture was added to 1 mL of 2% acetic acid. The sorbent of an Oasis HLB 30 mg Extraction Cartridge (Waters Chromatography—Milford, Mass.) was conditioned with 1 mL of methanol and 1 mL of water, the prepared sample was applied to the conditioned sorbent, and the sorbent was washed with 1 mL of 5% methanol. Samples were eluted with 200 μL methanol followed by 800 μL of 0.1% formic acid in methanol. The eluant was analyzed by an API 3000 LC-MS/MS system (Applied Biosystems—Foster City, Calif.). Samples were infused at 5 μL/min directly into the TurboIonSpray Source (Applied Biosystems—Foster City, Calif.), which was operated in the positive ionization mode. […]

## CN(C)CCN1C(=O)c2cccc3c(N)ccc(c23)C1=O [A1, 6-amino-2-[2-(dimethylamino)ethyl]-1H-benz[de]isoquinoline-1,3(2H)-dione]
pBR322 plasmid DNA
  DNA intercalation: intercalated DNA to a lesser extent than amonafide and the other derivatives

## CN(C)CCN1C(=O)c2cccc3cc(N)cc(c23)C1=O [amonafide, reference compound]
[1]
  N-acetylation by NAT2 (ratio of acetylated to parent compound): extensively acetylated
[1]; listed as Amonafide
  N-acetylation by NAT2 (ratio of acetylated to parent compound): underwent extensive acetylation
